This note sets out measurements from patent US10961222B2, “Chemical compound of isocitrate dehydrogenase inhibitor, and application thereof” (NANJING SANHOME PHARMACEUTICAL CO., LTD., priority 2016, dated 2021).

Experiment [1] deals with U87-MG (IDH2-R140Q) subcutaneous xenograft tumor. The experiment is described as follows: Subcutaneous xenograft tumor caused by U87-MG (IDH2-R140Q) mutant cells in vivo: intratumor 2-HG. Also on record: species or system BALB/c nude mice. Particulars: U87-MG (IDH2-R140Q) subcutaneous xenograft model. From the text:
1.2 Animals: BALB/c nude mice, 6-7 weeks old, female, 18-22 g, purchased from Nanjing Jinlaichang Company.
U87-MG (IDH2-R140Q) cells and U87-MG cells (wild type) were expanded, and cells in logarithmic growth phase were used for tumor inoculation in vivo. 16 mice were inoculated subcutaneously into the right lower back of the body at an amount of 2×10^6 cells/mouse (the volume ratio of cell suspension to Matrigel was 1:0.8).
The non-mutation control group was nude mice inoculated with U87-MG cells, and the test compound groups and vehicle control group were nude mice inoculated with U87-MG (IDH2-R140Q) cells.
Each group was intragastrically administered with a corresponding concentration of the compound solution, the administration volume was 100 μL/10 g body weight, and the control group was administered the same volume of blank vehicle.
After 10 days of administration, the mice were sacrificed. The tumors were exfoliated, homogenized, and the 2-HG content in the tumor was examined.
The 2-HG concentration in the homogenate of each animal tumor in each group was determined by LC-MS/MS. The percentage (2-HG %) was calculated; the calculation formula is as follows 2-HG %=(2-HG concentration of administration group tumor−2-HG concentration of U87-MG control group tumor)/(2-HG concentration of U87−MG(IDH2-R140Q) control group tumor−2-HG concentration of U87-MG control group tumor)×100%.

Experiment [2] concerns human acute myeloid leukemia AM7577 cells. The experiment in a line: Human acute myeloid leukemia NOD/SCID animal model: survival. It counts as in vivo, NOD/SCID mice. Particulars: gavage once a day for 14 days, 14 days after administration. From the text: 1.1 Compounds to be tested: the compounds of the present disclosure prepared in the above examples, each of which was formulated into a solution in corresponding concentrations by using a vehicle (2% absolute ethanol:10% Solutol™: 88% physiological saline (v/v/v)).
1.2 Cells: human acute myeloid leukemia AM7577 cells, provided by Sino-American Crown Biotechnology (Beijing) Co., Ltd
1.4 Animals: NOD/SCID mice, 3-4 weeks old, female, purchased from Beijing Huakangkang Biotechnology Co., Ltd
Each mouse was inoculated through the tail vein at an amount of 2×10^6 cells resuspended in 100 uL of PBS.
Orbital blood samples of animals were collected weekly, labeled with human CD45, and the percentage of positive cells was detected. The animals were grouped when the percentage of peripheral blood CD45+ cells reached 5%. The proportion of peripheral blood CD45+ cells reached 5% on the 40th day after inoculation. After grouping, drugs were administered by gastric gavageonce once a day for 14 days.
The mortality rate of the animals after administration and the survival period of the surviving animals were observed.

Consider `O[C@@]1(C(F)(F)F)CCN(c2nc(Nc3ccnc(C(F)(F)F)c3)nc(-c3cccc(C(F)(F)F)n3)n2)C1` [Example 22B, (S)-4-(3-trifluoromethyl-3-hydroxypyrrolidin-1-yl)-6-(6-(trifluoromethyl)pyridin-2-yl)-N-(2-(trifluoromethyl)pyridin-4-yl)-1,3,5-triazin-2-amine], for which, in experiment [1], the “ability of lowering 2-HG level compared with positive compound AG-221” value is given as “substantially superior”. The “Numbers of surviving animals” value in experiment [2] (15 mg/kg, 8 animals per group) was 7; in experiment [2] (45 mg/kg, AG-221 group 4 animals, Example 22B group 8), 7.
